≈ marks a conversion by molar mass, not a printed value. Calls of active or inactive are those of the source. The calls are words filed in the database; no cut-off is given here.
Experiments:
[1] = Solubility of compound in PBS buffer at pH 7.4 at 3 mg incubated for 24 hrs under shaking condition by RP-HPLC analysis; format: physicochemical
[2] = Permeability of the compound in PBS buffer incubated for 5 hrs by PAMPA-based LC-MS/MS analysis; format: ADME; conditions: read-out: permeability
CYP3A4 = CYP3A4 (Homo sapiens, UniProt P08684); assay: Inhibition of recombinant CYP3A4 (unknown origin) using midazolam as substrate assessed as reduction in substrate hydroxylation at 10 uM incubated for 5 mins in presence of NADPH by LC-MS/MS analysis relative to control; format: ADME; conditions: recombinant CYP3A4, probe midazolam
[3] = Stability in rat plasma assessed as interconversion into (S)-4-(5,6-Dimethoxybenzo[b]selenophen-2-yl)-2-ethyl-4-oxobutanoic acid incubated for 24 hrs by normal-phase HPLC analysis; format: ADME, cell-free
[4] = AUC (0 to infinity) in Sprague-Dawley rat at 50 mg/kg, po measured for 1440 mins by LC-MS/MS analysis; format: ADME, organism-based; set-up: time 1440 min, dose 50 mg/kg, route po; conditions: in vivo
[5] = AUC (0 to infinity) in Sprague-Dawley rat at 5 mg/kg, iv measured for 1440 mins by LC-MS/MS analysis; format: ADME, organism-based; set-up: dose 5 mg/kg, time 1440 min, route iv; conditions: in vivo
[6] = Clearance in Sprague-Dawley rat at 50 mg/kg, po measured for 1440 mins by LC-MS/MS analysis; format: ADME, organism-based; conditions: in vivo
[7] = Toxicity in immunocompetent BALB/c mouse assessed as reduction in body weight at 30 mg/kg, po measured after 3 days; format: organism-based; conditions: in vivo, 72 h, time 3 day
CT26 [8] = assay: Antitumor activity against mouse CT26 cells implanted in naive BALB/c mouse assessed as tumor growth regression at 20 mg/kg, po administered once every 5 days and measured after 30 days by digital caliper analysis relative to control; format: functional; conditions: time 30 day
CT26 [9] = assay: Immunological memory derived antitumor activity against mouse CT26 cells implanted in naive BALB/c mouse assessed as suppression of tumor growth at 20 mg/kg, po administered once every 5 days for 23 days starting from day 8 followed by reinoculation of cells into mouse on day 61 and measured for 50 days; format: functional; conditions: time 50 day
MC-38 = assay: In vivo activation of STING in naive […] mouse implanted with mouse MC38 cells assessed as increase in IFN-gamma level in plasma at 30 mg/kg, po administered as single dose and measured after 4 hrs by ELISA; format: functional, organism-based
Mus musculus [10] = assay: Immunostimulatory activity in naive […] mouse implanted with mouse MC38 cells assessed as increase in T cells in spleen at 30 mg/kg, po by FACS analysis; format: functional, organism-based; conditions: MC-38
Mus musculus [11] = assay: Immunostimulatory activity in naive […] mouse implanted with mouse MC38 cells assessed as increase in CD8 T cells in spleen at 30 mg/kg, po by FACS analysis; format: functional, organism-based; conditions: MC-38
Mus musculus [12] = assay: Immunostimulatory activity in naive […] mouse implanted with mouse MC38 cells assessed as increase in NK cells in spleen at 30 mg/kg, po by FACS analysis; format: functional, organism-based; conditions: MC-38
Mus musculus [13] = assay: Immunostimulatory activity in naive […] mouse implanted with mouse MC38 cells assessed as increase in NKT cells in spleen at 30 mg/kg, po by FACS analysis; format: functional, organism-based; conditions: MC-38
4T1 [14] = assay: Antitumor activity against mouse 4T1 cells implanted in naive BALB/c mouse assessed as tumor growth inhibition at 20 mg/kg, po administered once every 5 days and measured every 3 days by digital caliper analysis; format: functional, organism-based; conditions: time 5.0 day
4T1 [15] = assay: Antitumor activity against mouse 4T1 cells implanted in naive BALB/c mouse assessed as increase in Ki67-positive CD4 T cells in tumor at 20 mg/kg, po administered once every 5 days by FACS analysis (reference value: 4.4%); format: functional; conditions: time 5 day
4T1 [16] = assay: Antitumor activity against mouse 4T1 cells implanted in naive BALB/c mouse assessed as increase in Ki67-positive CD8 T cells in tumor at 20 mg/kg, po administered once every 5 days by FACS analysis (reference value: 14%); format: functional; conditions: time 5 day
[17] = target: T1, Stimulator of interferon genes protein (Homo sapiens, UniProt Q86WV6); assay: Agonist activity at STING in human THP-1 cells harboring IRF-inducible luciferase reporter construct assessed as fold change in ISG signalling at 20 uM incubated for 12 hrs by Quanti-luc reagent based assay relative to control; format: cell-based; conditions: filed as agonist
Target sequence in this assay (Q86WV6 whole entry): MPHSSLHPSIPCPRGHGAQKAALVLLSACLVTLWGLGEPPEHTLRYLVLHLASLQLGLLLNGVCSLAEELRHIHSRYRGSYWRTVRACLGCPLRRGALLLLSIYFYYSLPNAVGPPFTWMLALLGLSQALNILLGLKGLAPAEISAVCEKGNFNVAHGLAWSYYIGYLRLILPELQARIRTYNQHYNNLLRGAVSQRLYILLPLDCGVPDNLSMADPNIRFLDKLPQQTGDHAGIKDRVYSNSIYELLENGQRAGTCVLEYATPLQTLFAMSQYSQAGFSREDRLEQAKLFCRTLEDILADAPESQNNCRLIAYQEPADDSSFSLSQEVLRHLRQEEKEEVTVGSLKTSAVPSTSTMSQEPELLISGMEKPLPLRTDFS

[18] = test system: Stimulator of interferon genes protein (Homo sapiens), Q86WV6 [UNDEFINED MUTATION]; assay: Binding affinity to recombinant human STING H232 variant expressed in Escherichia coli BL21 (DE3) assessed as thermal stabilization by measuring change in melting temperature at 2 mM incubated for 30 mins by SYPRO orange dye based differential scanning fluorimetry assay
[19] = target: T1, Stimulator of interferon genes protein; assay: Binding affinity to recombinant human STING H232 variant expressed in Escherichia coli BL21 (DE3) assessed as dissociation constant by single cycle SPR analysis
Target sequence in this assay (Q86WV6 whole entry, looked up, stated change not applied): as the sequence (Q86WV6 whole entry) above

[20] = test system: Stimulator of interferon genes protein (Homo sapiens), Q86WV6 [UNDEFINED MUTATION]; assay: Binding affinity to recombinant human STING R232 variant expressed in Escherichia coli BL21 (DE3) assessed as thermal stabilization by measuring change in melting temperature at 0.1 mM incubated for 30 mins by SYPRO orange dye based differential scanning fluorimetry assay
[21] = target: T2, Stimulator of interferon genes protein (Mus musculus, UniProt Q3TBT3); assay: Agonist activity at STING in mouse RAW264.7 cells harboring IRF-inducible luciferase reporter construct assessed as increase in relative fluorescence unit incubated for 12 hrs by Quanti-luc reagent based assay; format: cell-based
T2 sequence (Q3TBT3 whole entry): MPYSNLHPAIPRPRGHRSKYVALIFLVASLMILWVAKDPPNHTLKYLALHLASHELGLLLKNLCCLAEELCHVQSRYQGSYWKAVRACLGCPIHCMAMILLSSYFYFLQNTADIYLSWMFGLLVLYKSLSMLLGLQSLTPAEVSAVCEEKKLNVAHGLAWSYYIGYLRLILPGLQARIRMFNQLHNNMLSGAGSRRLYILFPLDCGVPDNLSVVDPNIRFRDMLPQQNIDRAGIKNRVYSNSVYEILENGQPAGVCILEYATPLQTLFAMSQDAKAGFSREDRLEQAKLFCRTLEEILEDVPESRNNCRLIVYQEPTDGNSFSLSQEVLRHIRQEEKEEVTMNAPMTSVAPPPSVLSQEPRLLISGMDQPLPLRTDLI

[22] = target: T1, Stimulator of interferon genes protein; assay: Agonist activity at STING in cGAS knockout human THP-1 cells harboring IRF-inducible luciferase reporter construct assessed as increase in relative fluorescence unit incubated for 12 hrs by Quanti-luc reagent based assay; format: cell-based
Target sequence in this assay (Q86WV6 whole entry): as the sequence (Q86WV6 whole entry) above

[23] = target: T3, Stimulator of interferon genes protein (Mus musculus) (UniProt Q3TBT3); assay: Agonist activity at STING in mouse MEF cells assessed as increase in IFNbeta mRNA expression at 10 uM measured after 3 hrs by qRT-PCR analysis; format: cell-based; conditions: filed as agonist
T3 sequence (whole entry): T2 sequence (Q3TBT3 whole entry)

[24] = target: T3, Stimulator of interferon genes protein (Mus musculus); assay: Agonist activity at STING in mouse MEF cells assessed as increase in CXCL10 mRNA expression at 10 uM measured after 3 hrs by qRT-PCR analysis; format: cell-based; conditions: filed as agonist
[25] = target: T1, Stimulator of interferon genes protein; assay: Agonist activity at STING in human THP-1 cells harboring IRF-inducible luciferase reporter construct assessed as increase in IRF3 phosphorylation measured after 3 hrs by Western blot analysis; format: cell-based; conditions: filed as agonist, dose 10-50 µM, DDE = dose-dependent effect
Target sequence in this assay (Q86WV6 whole entry): as the sequence (Q86WV6 whole entry) above

Chain of Stimulator of interferon genes protein (Homo sapiens), Q86WV6 [UNDEFINED MUTATION] (Q86WV6 whole entry, looked up, stated change not applied): as the sequence (Q86WV6 whole entry) above
Chain of CYP3A4 (P08684 whole entry): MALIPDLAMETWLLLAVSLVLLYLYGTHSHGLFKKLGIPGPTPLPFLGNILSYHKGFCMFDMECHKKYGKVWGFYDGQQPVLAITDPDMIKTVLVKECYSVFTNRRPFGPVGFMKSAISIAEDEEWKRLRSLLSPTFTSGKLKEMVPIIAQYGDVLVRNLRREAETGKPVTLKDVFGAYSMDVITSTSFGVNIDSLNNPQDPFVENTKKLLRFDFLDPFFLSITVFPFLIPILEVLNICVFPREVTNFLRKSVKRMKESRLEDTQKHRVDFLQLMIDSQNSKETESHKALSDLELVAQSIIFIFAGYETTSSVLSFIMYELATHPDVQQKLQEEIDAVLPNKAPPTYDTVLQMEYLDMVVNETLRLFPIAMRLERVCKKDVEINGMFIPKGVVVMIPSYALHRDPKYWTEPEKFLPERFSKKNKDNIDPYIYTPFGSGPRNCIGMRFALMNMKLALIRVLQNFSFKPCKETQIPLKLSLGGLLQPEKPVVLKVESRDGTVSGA

## CC[C@H](CC(=O)c1cc2cc(OC)c(OC)cc2[se]1)C(=O)O
[1]
  solubility thermodynamic at 24 h: 1200 µg/mL (≈ 3.25 mM)
[2]
  Papp at 5 h: 2.04 ×10⁻⁶ cm/s
CYP3A4
  inhibition at 5 min, 10 µM: 13.5%
[3]
  Stability: Stable
[4]
  AUC(0-inf): 316 µg·h/mL
[5]
  AUC(0-inf): 29.4 µg·h/mL
[6]
  CL/F: 2.67 mL/min/kg
[7]
  Activity: Non-Toxic
CT26 [8]
  Activity: 100%
CT26 [9]
  Activity: 100%
MC-38
  Activity: Active
Mus musculus [10]
  Activity: Active
Mus musculus [11]
  Activity: Active
Mus musculus [12]
  Activity: Active
Mus musculus [13]
  Activity: Active
4T1 [14]
  Activity: Active
4T1 [15]
  Activity: 25.4%
4T1 [16]
  Activity: 25.2%
[17]
  fold change (FC): 37
[18]
  ΔTm: 7.4 °C
[19]
  Kd: 23 µM
[20]
  ΔTm: 18.1 °C
[21]
  EC50: 5.71 µM
[22]
  EC50: 5.19 µM
[23]
  Activity: Active
[24]
  Activity: Active
[25]
  Activity: Dde

Source: ChEMBL document CHEMBL5214933, “Discovery of Selenium-Containing STING Agonists as Orally Available Antitumor Agents” (J Med Chem, 2022)
